Tests used:
Type in all cases: cell-based, mouse
[1] = system: islets from hIAPP+/− FVB/N mice; experiment: Intracellular free radical detection and lipid peroxidation after islet isolation; conditions: 20 μM Compound 1 during islet isolation, vs control islets
Procedure: (§1) Mouse islets were isolated from 10- to 12-week-old hIAPP^+/− and C57BL/6 mice as described previously. Briefly, 0.8 mg/mL of collagenase P (Roche, Indianapolis, IN, USA) in Hank's buffered saline solution (HBSS, Sigma-Aldrich, St. Louis, MO, USA) with or without 20 μM Compound 1 were infused into the common bile duct for mouse pancreas digestion. Islets were purified from the digested pancreas using a Ficoll (Biochrom, Berlin, Germany) gradient and washed several times with 1 xHBSS. Isolated islets were cultured while free-floating in 10 mL of RPMI 1640 (Gibco, Grand Island, NY, USA). The medium was supplemented with 10% heat-inactivated FBS (fetal bovine serum) at 37° C. and 5% CO2 incubation prior to the ex vivo and in vivo studies.
The oxidative stress levels in hIAPP^+/− mouse islets were determined right after islet isolation and after ex vivo culture of isolated islets. The oxidative stress of the islets was quantified using a fluorescence-based intracellular ROS detection method and by estimating the concentration of malondialdehyde (MDA), a by-product of lipid peroxidation. The formation of total ROS, superoxide ion and nitric oxide was determined using a reactive oxygen species detection kit (ENZ-51011, Enzo Life Sciences, Farmingdale, New York, USA). The ROS content was measured by levels of DHR123 fluorescence. The kit was applied according to the manufacturer's protocol.

[2] = system: islets from hIAPP+/− FVB/N mice; experiment: ATP assay of islets isolated with or without Compound 1; conditions: 20 μM Compound 1 during islet isolation, vs non-treated group; FIG. 1B
Procedure: as §1
ATP content of islets was assayed by a luminometric method. The samples were mixed with 200 μL of a commercially available lyophilized ATP monitoring reagent containing firefly luciferase and luciferin (ATP Bioluminescence Assay KIT CLS II, Roche Diagnostics) at first reconstituted in an imidazole buffer (100 mM, pH 7.75). The emitted light was measured in a luminometer (LKB 1250 luminometer). The adenine nucleotide content in samples was determined after correction of the control (no islet or cell) and calculated by reference to ATP standards treated in the same manner as the samples.

[3] = system: islets from hIAPP+/− FVB/N mice; experiment: Glucose-stimulated insulin secretion (GSIS) assay after islet isolation; conditions: 20 μM Compound 1 during islet isolation, vs non-treated group; FIG. 1E
Procedure: as §1
After hand-picking and washing with PBS, islets were seeded on 12-mm diameter insert wells (Merck Millipore, Billerica, MA, USA) with 10 islets per well, and preincubated with 60 mg/dL glucose in Kreb's-Ringer buffer (KRB: 129 mM NaCl, 4.8 mM KCl, 2.5 mM CaCl2, 1.2 mM KH2PO4, 5 mM NaHCO3, 10 mM HEPES, and 0.2% BSA) for […] at 37° C. After washing, islets were incubated with 300 mg/dL glucose-KRB for 1 hour, followed by additional incubation with 60 mg/dL glucose-KRB for 1 hour. Insulin release into the supernatant by the mouse islets was measured by ELISA (ALPCO, Salem, NH, USA) and a multiplex kit (Merck Millipore), respectively.

O=S1(=O)CCN(Cc2cc(NC3CCOCC3)c3[nH]c(-c4ccccc4)cc3c2)CC1 [Compound 1]
ROS contents in islets ([1]; FIG. 1C): markedly decreased
oxidative stress levels in islets ([1]; FIG. 1D): markedly decreased
levels of ATP [2]: significantly elevated
stimulation index in GSIS assay [3]: comparable values between two groups

Reference: patent publication US12677825B2, “Composition for protecting islet transplantation” (LG CHEM, LTD., priority 2020, dated 2026)
